Experimental data published in ChEMBL document CHEMBL5579840, “Optimization of diastereomeric dihydropyridines as antimalarials” (Eur J Med Chem, 2024).

What was measured:
Plasmodium falciparum [1] = assay: Antimalarial activity against chloroquine-sensitive Plasmodium falciparum 3D7 infected in erythroctes incubated for 72 hrs by SYBR green 1 based spectrofluorometer; format: functional, organism-based, Erythrocyte
Plasmodium falciparum [2] = assay: Antimalarial activity against chloroquine-resistant Plasmodium falciparum K1 infected in erythroctes incubated for 72 hrs by SYBR green 1 based spectrofluorometer; format: functional, organism-based, Erythrocyte
[3] = Cytotoxicity against mouse J774.A1 cells; format: toxicity, cell-based
[4] = Plasmodium falciparum, 3D7, Erythrocyte, 72 h
[5] = Plasmodium falciparum, K1, Erythrocyte, 72 h

Structure (SMILES)	EC50 (Plasmodium falciparum [1]; [4]) [nM]	EC50 (Plasmodium falciparum [2]; [5]) [nM]	EC50 [3] [nM]	EC50 (Plasmodium falciparum [1]; erythrocyte) [nM]	EC50 (Plasmodium falciparum [2]; erythrocyte) [nM]
CCOC(=O)C1=C(C)NC2=C(C(=O)OC(c3ccc(OC)c(OC)c3)C2)C1c1cccc(C)c1 (centres undefined)	> 10000	> 10000	> 20000	–	–
CCOC(=O)C1=C(C)NC2=C(C(=O)OC(c3ccc(OC)c(OC)c3)C2)C1c1ccc2ccccc2c1 (centres undefined)	> 10000	> 10000	> 20000	–	–
CCOC(=O)C1=C(C)NC2=C(C(=O)OC(c3ccc(OC)c(OC)c3)C2)C1c1cccc2ccccc12 (centres undefined)	> 10000	> 10000	> 20000	–	–
CCOC(=O)C1=C(C)NC2=C(C(=O)OC(c3ccc(OC)c(OC)c3)C2)C1c1cccc(Cl)c1 (centres undefined)	> 10000	> 10000	> 20000	–	–
CCOC(=O)C1=C(C)NC2=C(C(=O)OC(c3cccc(Cl)c3)C2)C1c1ccccc1Cl (centres undefined)	> 6000	> 6000	> 20000	–	–
CCOC(=O)C1=C(C)NC2=C(C(=O)OC(c3ccc(OC)c(OC)c3)C2)C1c1ccc(-c2ccccc2)cc1 (centres undefined)	> 10000	> 10000	> 20000	–	–
CCOC(=O)C1=C(C)NC2=C(C(=O)OC(c3ccc(OC)c(OC)c3)C2)C1c1ccc(OC)cc1 (centres undefined)	> 10000	> 10000	> 20000	–	–
CCOC(=O)C1=C(C)NC2=C(C(=O)OC(c3ccccc3C)C2)C1c1ccccc1Cl (centres undefined)	> 5000	> 5000	> 20000	–	–
CCOC(=O)C1=C(C)NC2=C(C(=O)OC(c3ccc(OC)c(OC)c3)C2)C1c1cccc(OC)c1 (centres undefined)	> 10000	> 10000	> 20000	–	–
CCOC(=O)C1=C(C)NC2=C(C(=O)CC(c3ccc(Cl)c(OC)c3)C2)C1c1ccccc1Cl (mixture of isomers)	–	–	–	47.7	51.2
CCOC(=O)C1=C(C)NC2=C(C(=O)CC(c3cc(OC)c(OC)c(OC)c3)C2)C1c1ccccc1Cl (mixture of isomers)	–	–	–	3.6	4.9
CCCC1=C(C(=O)OCC)C(c2ccccc2Cl)C2=C(CC(c3ccc(OC)c(OC)c3)CC2=O)N1 (mixture of isomers)	–	–	–	2.3	3.8
COCC1=C(C(=O)OC)C(c2ccc(Cl)cc2C)C2=C(CC(c3ccc(OC)c(OC)c3)OC2=O)N1 (mixture of isomers)	–	–	–	112	81.3
CCCC1=C(C(=O)OCC)C(c2ccc(Cl)cc2C)C2=C(CC(c3ccc(Cl)c(OC)c3)CC2=O)N1 (mixture of isomers)	–	–	–	27.9	48.9
CCCC1=C(C(=O)OCC)C(c2ccc(Cl)cc2C)C2=C(CC(c3cc(OC)ccc3OC)CC2=O)N1 (mixture of isomers)	–	–	–	55.1	44.4
CCCC1=C(C(=O)OCC)C(c2ccc(Cl)cc2C)C2=C(CC(c3ccc(OC)c(OC)c3)OC2=O)N1 (mixture of isomers)	–	–	–	30	22
CCOC(=O)C1=C(C)NC2=C(C(=O)OC(c3ccc(Cl)c(OC)c3)C2)C1c1ccccc1Cl (mixture of isomers)	–	–	–	595	345
CCOC(=O)C1=C(C)NC2=C(C(=O)OC(c3ccc(Cl)c(OC)c3)C2)C1c1ccc(Cl)cc1C (mixture of isomers)	–	–	–	80	73.2
COCC1=C(C(=O)OC)C(c2ccc(Cl)cc2)C2=C(CC(c3cc(OC)c(OC)c(OC)c3)OC2=O)N1 (mixture of isomers)	–	–	–	30.8	43.6

Structure (SMILES)	EC50 (Plasmodium falciparum [1]; [4]) [nM]	EC50 (Plasmodium falciparum [2]; [5]) [nM]	EC50 [3] [nM]	EC50 (Plasmodium falciparum [1]; erythrocyte) [nM]	EC50 (Plasmodium falciparum [2]; erythrocyte) [nM]
COCC1=C(C(=O)OC)C(c2ccc(Cl)cc2C)C2=C(CC(c3ccc(OC)c(OC)c3)CC2=O)N1 (mixture of isomers)	–	–	–	2.4	4.6
CCOC(=O)C1=C(C)NC2=C(C(=O)CC(c3ccc(Cl)c(OC)c3)C2)C1c1ccc(Cl)cc1C (mixture of isomers)	–	–	–	78.3	69.1
CCCC1=C(C(=O)OCC)C(c2ccc(Cl)cc2C)C2=C(CC(c3ccc(OC)c(OC)c3)CC2=O)N1 (mixture of isomers)	–	–	–	13.5	24.1
CCOC(=O)C1=C(C)NC2=C(C(=O)OC(c3ccc(OC)c(OC)c3)C2)C1c1ccccc1 (stereo in doubt; 1A)	–	–	> 20000	> 7400	> 7400
CCOC(=O)C1=C(C)NC2=C(C(=O)OC(c3ccc(OC)c(OC)c3)C2)C1c1ccccc1 (stereo in doubt; 1B)	–	–	–	83	80
CCOC(=O)C1=C(C)NC2=C(C(=O)CC(c3ccc(OC)c(OC)c3)C2)C1c1ccccc1Cl (stereo in doubt; 2A)	–	–	> 20000	165	141
CCOC(=O)C1=C(C)NC2=C(C(=O)CC(c3ccc(OC)c(OC)c3)C2)C1c1ccccc1Cl (stereo in doubt; 2B)	–	–	–	13.5	15.7
CCOC(=O)C1=C(C)NC2=C(C(=O)OC(c3ccc(OC)c(OC)c3)C2)C1c1ccccc1Cl (stereo in doubt; 3A)	–	–	> 20000	2330	1390
CCOC(=O)C1=C(C)NC2=C(C(=O)OC(c3ccc(OC)c(OC)c3)C2)C1c1ccc(Cl)cc1 (stereo in doubt; 5)	–	–	–	91.8	160
CCOC(=O)C1=C(C)NC2=C(C(=O)OC(c3ccc(OC)c(OC)c3)C2)C1c1ccc(Cl)cc1 (stereo in doubt; 5A)	–	–	> 20000	769	633
CCOC(=O)C1=C(C)NC2=C(C(=O)OC(c3ccc(OC)c(OC)c3)C2)C1c1ccc(Cl)cc1 (stereo in doubt; 5B)	–	–	–	47.6	53.8
CCOC(=O)C1=C(C)NC2=C(C(=O)OC(c3ccc(OC)c(OC)c3)C2)C1c1ccccc1C (stereo in doubt; 6A)	–	–	> 20000	1270	2050
CCOC(=O)C1=C(C)NC2=C(C(=O)OC(c3ccc(OC)c(OC)c3)C2)C1c1ccccc1C (stereo in doubt; 6B)	–	–	–	38.5	59.7
CCOC(=O)C1=C(C)NC2=C(C(=O)OC(c3ccc(OC)c(OC)c3)C2)C1c1ccc(C)cc1 (stereo in doubt; 8A)	–	–	> 20000	> 10000	> 10000
CCOC(=O)C1=C(C)NC2=C(C(=O)OC(c3ccc(OC)c(OC)c3)C2)C1c1ccc(C)cc1 (stereo in doubt; 8B)	–	–	–	638	605
CCOC(=O)C1=C(C)NC2=C(C(=O)OC(c3ccc(OC)c(OC)c3)C2)C1c1ccccc1OC (stereo in doubt; 9A)	–	> 5600	> 20000	> 5600	–
CCOC(=O)C1=C(C)NC2=C(C(=O)OC(c3ccc(OC)c(OC)c3)C2)C1c1ccccc1OC (stereo in doubt; 9B)	–	–	–	2050	> 5500
CCOC(=O)C1=C(C)NC2=C(C(=O)OC(c3ccc(OC)c(OC)c3)C2)C1c1ccc(Br)cc1 (stereo in doubt; 12B)	–	–	–	59	341
CCOC(=O)C1=C(C)NC2=C(C(=O)OC(c3ccc(OC)c(OC)c3)C2)C1c1ccc([N+](=O)[O-])cc1 (stereo in doubt; 13B)	–	–	–	2710	2200

Structure (SMILES)	EC50 (Plasmodium falciparum [1]; [4]) [nM]	EC50 (Plasmodium falciparum [2]; [5]) [nM]	EC50 [3] [nM]	EC50 (Plasmodium falciparum [1]; erythrocyte) [nM]	EC50 (Plasmodium falciparum [2]; erythrocyte) [nM]
CCOC(=O)C1=C(C)NC2=C(C(=O)OC(c3ccccc3)C2)C1c1ccccc1Cl (stereo in doubt; 17A)	> 9500	–	> 20000	–	–
CCOC(=O)C1=C(C)NC2=C(C(=O)OC(c3ccc(Cl)cc3)C2)C1c1ccccc1Cl (stereo in doubt; 20B)	–	–	–	2860	2160
CCOC(=O)C1=C(C)NC2=C(C(=O)OC(c3cccc(C)c3)C2)C1c1ccccc1Cl (stereo in doubt; 22B)	–	–	–	> 6000	> 6000
CCOC(=O)C1=C(C)NC2=C(C(=O)OC(c3ccc(C)cc3)C2)C1c1ccccc1Cl (stereo in doubt; 23B)	–	–	–	> 6000	1580
CCOC(=O)C1=C(C)NC2=C(C(=O)OC(c3ccccc3OC)C2)C1c1ccccc1Cl (stereo in doubt; 24B)	–	–	–	> 5500	> 5500
CCOC(=O)C1=C(C)NC2=C(C(=O)OC(c3cccc(OC)c3)C2)C1c1ccccc1Cl (stereo in doubt; 25B)	–	–	–	626	363
CCOC(=O)C1=C(C)NC2=C(C(=O)OC(c3ccc(OC)cc3)C2)C1c1ccccc1Cl (stereo in doubt; 26B)	–	–	–	2160	1960
COc1ccc(C2CC(=O)C3=C(C2)NC(C)=C(C(=O)O)C3c2ccccc2Cl)cc1OC (stereo in doubt; 27A)	> 15000	–	> 20000	–	–
COC(=O)C1=C(C)NC2=C(C(=O)OC(c3ccc(OC)c(OC)c3)C2)C1c1ccccc1Cl (stereo in doubt; 28B)	–	–	–	798	417
CCCOC(=O)C1=C(C)NC2=C(C(=O)OC(c3ccc(OC)c(OC)c3)C2)C1c1ccccc1Cl (stereo in doubt; 29B)	–	–	–	458	332
COc1ccc(C2CC3=C(C(=O)O2)C(c2ccccc2Cl)C(C(=O)OCc2ccccc2)=C(C)N3)cc1OC (stereo in doubt; 31B)	–	–	–	> 9100	> 9100
CCOC(=O)C1=C(C(=O)OCC)C(c2ccccc2Cl)C2=C(CC(c3ccc(OC)c(OC)c3)OC2=O)N1 (stereo in doubt; 33B)	–	–	–	119	77.6
CCOC(=O)C1=C(c2ccccc2)NC2=C(C(=O)CC(c3ccc(OC)c(OC)c3)C2)C1c1ccccc1Cl (stereo in doubt; 35B)	–	–	–	40.5	46.7
CCOC(=O)C1=C(C)NC2=C(C(=O)CC(c3ccc(OC)c(OC)c3)C2)C1c1ccc(Cl)cc1 (stereo in doubt; 36B)	–	–	–	10.3	9.3
CCCC1=C(C(=O)OCC)C(c2ccc(Cl)cc2C)C2=C(CC(c3cc(OC)ccc3OC)CC2=O)N1 (stereo in doubt; 48B)	–	–	–	37.5	46.8
COCC1=C(C(=O)OC)C(c2ccc(Cl)cc2)C2=C(CC(c3cc(OC)c(OC)c(OC)c3)OC2=O)N1 (stereo in doubt; 56B)	–	–	–	29	42.3
CCN(CC)CCCC(C)Nc1ccnc2cc(Cl)ccc12 (centres undefined) [CHLOROQUINE]	48	1360	–	–	–
OC(c1cc(C(F)(F)F)nc2c(C(F)(F)F)cccc12)C1CCCCN1 (centres undefined) [MEFLOQUINE]	62	31	–	–	–
COc1cc([C@@H]2c3cc4c(cc3[C@H](O)[C@H]3COC(=O)[C@H]23)OCO4)cc(OC)c1OC [PODOFILOX]	–	–	250	–	–
